Experimental data reported in patent US8003779B2, “Compositions and methods for studying and treating inflammatory diseases and disorders” (University of Rochester, priority 2005, dated 2011).

Tests used:
[1] = test system: 293HGLVP/CrePr cells; assay: RU486-induced CrePr activation of IL-1βXAT in 293HGLVP/CrePr cells; assay type: cell-based
Method: The IL-1β^XAT gene was transiently transfected into 293HGLVP/CrePr cells and the expression of IL-1β and lacZ were evaluated following RU486 (10^-7 M) administration.
IL-1β expression was assessed at the mRNA level by reverse transcriptase PCR (RT-PCR), and lacZ expression was evaluated by X-gal histochemistry.

[2] = test system: mice; assay type: in vivo; conditions: perinatal systemic administration
[3] = literature (Loddick and Rothwell 1996; Yamasaki et al. 1995); cited from earlier work
[4] = test system: primary rat endothelial cells; assay: IL-1β regulation of inflammation-related genes in primary rat endothelial cells (mRNA, zymography); assay type: cell-based; conditions: murine IL-1β 10 ng/mL, over 72 hours
Method: The effects of IL-1β were evaluated in vitro utilizing primary rat endothelial cell cultures as a representative rodent cell type. In this experiment, murine IL-1β (10 ng/mL) was administered to cultured primary cells, and subsequently examined for the regulation of several inflammation-related genes at the transcript level over the course of 72 hours. These molecules include (A) the inducible isoform of cyclooxygenase (COX-2), intercellular adhesion molecule-1 (ICAM-1) and monocyte chemoattractant protein-1 (MCP-1), as well as (B) the collagenase-A (MMP-2) and -B (MMP-9). Panel (C) depicts enzyme activity levels of MMP-2 and MMP-9 as evaluated by zymography.
Moreover, a plethora of inflammation-related genes are in turn induced by IL-1β, leading to exacerbation of the inflammatory response. IL-1βregulates down-stream inflammatory genes, including the inducible isoform of cyclooxygenase (COX-2) and the intercellular adhesion molecule-1 (ICAM-1), the monocyte chemoattractant protein-1 (MCP-1), as well as collagenases A (MMP-2) and B (MMP-9). ICAM-1 and MCP-1 are molecules associated with the recruitment of circulating immune cells at the site of injury (i.e. neutrophils and monocytes, respectively), whereas MMP-2 and MMP-9 are collagenases associated with tissue destruction during arthritis and injury. Primary rat endothelial cells were employed as a representative rodent model to investigate the effects of IL-1β on the regulation of ICAM-1, MCP-1, MMP-2 and MMP-9 at the transcriptional level (mRNA) as well as the enzyme activity level (zymography). FIG. 5 summarizes the regulation of these genes over time.

## CC#C[C@]1(O)CC[C@H]2[C@@H]3CCC4=CC(=O)CCC4=C3[C@@H](c3ccc(N(C)C)cc3)C[C@@]21C [RU486, mifepristone]
[1]; RU486 10^-7 M
  secreted IL-1β protein in supernatant media (ELISA): significantly higher levels
[1]; RU486 10^-7 M, IL-1βXAT-transfected cells
  IL-1β and lacZ mRNA (RT-PCR): up-regulation
[1]; RU486 in culture media
  number of X-gal positive cells: significant increase

## FIV(lacZ): FIV vector carrying the reporter gene lacZ, construct 12750 bp
[2]
  duration of stable lacZ reporter expression: over 3 months

## IL-1ra: IL-1 receptor antagonist, competes for receptor binding
[3]
  tissue damage / injury in stroke models: significantly attenuates tissue injury

B1: IL-1β: pro-inflammatory cytokine; murine IL-1β (10 ng/mL) in FIG. 5 (protein, UniProt P10749 118-269, looked up)
Interleukin-1 beta: VPIRQLHYRLRDEQQKSLVLSDPYELKALHLNGQNINQQVIFSMSFVQGEPSNDKIPVALGLKGKNLYLSCVMKDGTPTLQLESVDPKQYPKKKMEKRFVFNKIEVKSKVEFESAEFPNWYISTSQAEHKPVFLGNNSGQDIIDFTMESVSS
[4]
  MMP-2 enzyme activity (zymography): increased with time
  MMP-2 mRNA levels: not altered
  synthesis of COX-2, MCP-1, ICAM-1 and MMP-9: upregulated
[3]
  tissue damage / injury in stroke models: exacerbates damage
